# Measured values published in patent publication US20020137929A1, “1 - (3-heterocyclylphenyl) isothiourea, -isourea, -guanidine and -amidine herbicidal agents” (Intellectual Property Department, BASF Aktiengesellschaft, priority 1998, published 2002).
# Columns and labels:
# ZEAMX (Corn, Field) [1] = experiment: Postemergence herbicidal evaluation; assay type: in vivo, Zea mays; conditions: postemergence
# Summary of the method: (§1)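 ~2-wk seedlings; postemergence spray, 40 psi; vehicle 1:1 acetone:water + 0.5% Tween 20; rate ≈0.0156–0.500 kg/ha; greenhouse hold; scored 4–5 wk after treatment, 0–9 scale vs control; repeat tests averaged.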
# SETVI (Foxtail, Green) [2] = experiment: Preemergence herbicidal evaluation; assay type: in vivo, Setaria viridis; conditions: preemergence, rated 4-5 weeks after treatment, 0-9 scale
# Summary of the method: (§2)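 Visual 0-9 rating vs control (stand, vigor, malformation, size, chlorosis, overall appearance), scored 4-5 wk after spraying. Seeded soil cups were treated preemergence with compound in aqueous acetone, ~0.0156-0.500 kg/ha equivalent.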
# SETVI (Foxtail, Green) [3] = experiment: Postemergence herbicidal evaluation; assay type: in vivo, Setaria viridis; conditions: postemergence
# Summary of the method: as §1
# ECHCG (Barnyardgrass) = experiment: Preemergence herbicidal evaluation; assay type: in vivo, Echinochloa crus-galli; conditions: preemergence, rated 4-5 weeks after treatment, 0-9 scale
# Summary of the method: as §2
# [4] = system: ECHORC (Watergrass (Calif.)); experiment: Postemergence weed control under flooded paddy conditions; assay type: in vivo, Echinochloa oryzoides; conditions: postemergence weeds, rated 3 to 4 weeks after treatment
# Summary of the method: (§3)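 Flood-water application, about 0.0313–0.500 kg/ha a.i. in aqueous/acetone 50/50 v/v; water depth 1.5–3 cm throughout. Weeds 3–5 cm, rice 1.5–2.5 leaf. Greenhouse; 0–9 visual rating vs control at 3–4 wk.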
# CYPIR (Rice Flatsedge) [5] = experiment: as above; assay type: in vivo, Cyperus iria; conditions: postemergence weeds, rated 3 to 4 weeks after treatment
# Summary of the method: as §3
# CYPIR (Rice Flatsedge) [6] = experiment: Preemergence weed control under flooded paddy conditions; assay type: in vivo, Cyperus iria; conditions: rated 3-4 weeks after treatment
# Summary of the method: (§4)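 Ratings on a 0-9 visual scale cover stand, vigor, malformation, size, chlorosis and overall appearance relative to a control, taken three to four weeks post-treatment. Application was into flood water over freshly sown silt loam at roughly 0.0313 to 0.500 kg/ha.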
# [7] = system: SAGPY (Arrowhead (Pygmaea)); experiment: Postemergence weed control under flooded paddy conditions; assay type: in vivo, Sagittaria pygmaea; conditions: postemergence weeds, rated 3 to 4 weeks after treatment
# Summary of the method: as §3
# CYPSE (Flatsedge) [8] = experiment: Preemergence weed control under flooded paddy conditions; assay type: in vivo, Cyperus serotinus; conditions: rated 3-4 weeks after treatment
# Summary of the method: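 First, seeds or propagules go into the top 0.5 cm of silt loam; next, water is held 1.5 to 3 cm over the soil; then compound (50/50 acetone/water) is pipetted into it at about 0.0313 to 0.500 kg/ha; finally plants are rated visually 0-9 after three to four weeks.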
# ZEAMX (Corn, Field) [9] = experiment: Preemergence herbicidal evaluation; assay type: in vivo, Zea mays; conditions: preemergence, rated 4-5 weeks after treatment, 0-9 scale
# Summary of the method: as §2
# [10] = system: ECHORC (Watergrass (Calif.)); experiment: Preemergence weed control under flooded paddy conditions; assay type: in vivo, Echinochloa oryzoides; conditions: rated 3-4 weeks after treatment
# Summary of the method: as §4
# CYPSE (Flatsedge) [11] = experiment: Postemergence weed control under flooded paddy conditions; assay type: in vivo, Cyperus serotinus; conditions: postemergence weeds, rated 3 to 4 weeks after treatment
# Summary of the method: as §3
# ORYSAT (Rice, Tebonnet) = experiment: Postemergence herbicidal evaluation; assay type: in vivo, Oryza sativa, (L.) Tebonnet; conditions: postemergence
# Summary of the method: as §1
# [12] = system: TRZAWR (Wheat, Winter, cv Riband); experiment: Preemergence herbicidal evaluation; assay type: in vivo, Triticum aestivum; conditions: preemergence, rated 4-5 weeks after treatment, 0-9 scale
# Summary of the method: as §2
structure (smiles),measurement,setting,value
"CCS(=O)(=O)NC(=O)CC1SC(=Nc2cc(-n3c(=O)cc(C(F)(F)F)n(C)c3=O)c(F)cc2Cl)N(C)C1=O (stereo not shown) [Compound 105, 2-{{2-Chloro-5-[3,6-dihydro-3-methyl-2,6-dioxo-4-(trifluoromethyl)-1(2H)-pyrimidinyl]-4-fluorophenyl}imino}-N-(ethylsulfonyl)-3-methyl-4-oxo-5-thiazolidineacetamide]",herbicidal rating ZEAMX,"ZEAMX (Corn, Field) [1]; rate 0.0156 kg/ha",3.5
same,herbicidal rating ZEAMX,"ZEAMX (Corn, Field) [1]; rate 0.0313 kg/ha",5.0
same,herbicidal rating ZEAMX,"ZEAMX (Corn, Field) [1]; rate 0.0625 kg/ha",6.0
same,herbicidal rating ZEAMX,"ZEAMX (Corn, Field) [1]; rate 0.1250 kg/ha",7.0
same,SETVI rating,"SETVI (Foxtail, Green) [2]; 0.1250 kg/ha",0.0
same,SETVI rating,"SETVI (Foxtail, Green) [2]; 0.2500 kg/ha",3.0
same,SETVI rating,"SETVI (Foxtail, Green) [2]; 0.5000 kg/ha",3.0
same,herbicidal rating SETVI,"SETVI (Foxtail, Green) [3]; rate 0.0156 kg/ha",0.0
same,herbicidal rating SETVI,"SETVI (Foxtail, Green) [3]; rate 0.0313 kg/ha",0.0
same,herbicidal rating SETVI,"SETVI (Foxtail, Green) [3]; rate 0.0625 kg/ha",2.0
same,herbicidal rating SETVI,"SETVI (Foxtail, Green) [3]; rate 0.1250 kg/ha",5.0
same,ECHCG rating,ECHCG (Barnyardgrass); 0.1250 kg/ha,0.0
same,ECHCG rating,ECHCG (Barnyardgrass); 0.2500 kg/ha,0.0
same,ECHCG rating,ECHCG (Barnyardgrass); 0.5000 kg/ha,1.0
same,Herbicidal rating ECHORC,[4]; Rate 0.0313 kg/ha,0.0
same,Herbicidal rating ECHORC,[4]; Rate 0.0625 kg/ha,3.0
same,Herbicidal rating ECHORC,[4]; Rate 0.1250 kg/ha,4.0
same,Herbicidal rating ECHORC,[4]; Rate 0.2500 kg/ha,5.0
same,Herbicidal rating CYPIR,CYPIR (Rice Flatsedge) [5]; Rate 0.0313 kg/ha,5.0
same,Herbicidal rating CYPIR,CYPIR (Rice Flatsedge) [5]; Rate 0.0625 kg/ha,7.0
same,Herbicidal rating CYPIR,CYPIR (Rice Flatsedge) [5]; Rate 0.1250 kg/ha,7.0
same,Herbicidal rating CYPIR,CYPIR (Rice Flatsedge) [5]; Rate 0.2500 kg/ha,9.0
same,CYPIR herbicidal effect rating,CYPIR (Rice Flatsedge) [6]; 0.0313 kg/ha,5.0
same,CYPIR herbicidal effect rating,CYPIR (Rice Flatsedge) [6]; 0.0625 kg/ha,7.0
same,CYPIR herbicidal effect rating,CYPIR (Rice Flatsedge) [6]; 0.1250 kg/ha,7.0
same,CYPIR herbicidal effect rating,CYPIR (Rice Flatsedge) [6]; 0.2500 kg/ha,9.0
same,Herbicidal rating SAGPY,[7]; Rate 0.0313 kg/ha,3.0
same,Herbicidal rating SAGPY,[7]; Rate 0.0625 kg/ha,5.0
same,Herbicidal rating SAGPY,[7]; Rate 0.1250 kg/ha,5.0
same,Herbicidal rating SAGPY,[7]; Rate 0.2500 kg/ha,7.0
same,CYPSE herbicidal effect rating,CYPSE (Flatsedge) [8]; 0.0313 kg/ha,2.0
same,CYPSE herbicidal effect rating,CYPSE (Flatsedge) [8]; 0.0625 kg/ha,5.0
same,CYPSE herbicidal effect rating,CYPSE (Flatsedge) [8]; 0.1250 kg/ha,7.0
same,CYPSE herbicidal effect rating,CYPSE (Flatsedge) [8]; 0.2500 kg/ha,9.0
same,ZEAMX rating,"ZEAMX (Corn, Field) [9]; 0.1250 kg/ha",0.0
same,ZEAMX rating,"ZEAMX (Corn, Field) [9]; 0.2500 kg/ha",1.0
same,ZEAMX rating,"ZEAMX (Corn, Field) [9]; 0.5000 kg/ha",2.0
same,ECHORC herbicidal effect rating,[10]; 0.0313 kg/ha,0.0
same,ECHORC herbicidal effect rating,[10]; 0.0625 kg/ha,3.0
same,ECHORC herbicidal effect rating,[10]; 0.1250 kg/ha,4.0
same,ECHORC herbicidal effect rating,[10]; 0.2500 kg/ha,5.0
same,Herbicidal rating CYPSE,CYPSE (Flatsedge) [11]; Rate 0.0313 kg/ha,2.0
same,Herbicidal rating CYPSE,CYPSE (Flatsedge) [11]; Rate 0.0625 kg/ha,5.0
same,Herbicidal rating CYPSE,CYPSE (Flatsedge) [11]; Rate 0.1250 kg/ha,7.0
same,Herbicidal rating CYPSE,CYPSE (Flatsedge) [11]; Rate 0.2500 kg/ha,9.0
same,herbicidal rating ORYSAT,"ORYSAT (Rice, Tebonnet); rate 0.0156 kg/ha",0.0
same,herbicidal rating ORYSAT,"ORYSAT (Rice, Tebonnet); rate 0.0313 kg/ha",0.0
same,herbicidal rating ORYSAT,"ORYSAT (Rice, Tebonnet); rate 0.0625 kg/ha",0.0
same,herbicidal rating ORYSAT,"ORYSAT (Rice, Tebonnet); rate 0.1250 kg/ha",2.0
same,TRZAWR rating,[12]; 0.1250 kg/ha,0.0
same,TRZAWR rating,[12]; 0.2500 kg/ha,0.0
same,TRZAWR rating,[12]; 0.5000 kg/ha,0.0
